Where “and” joins values, the source holds several entries; their conditions need not be identical. Equal entries are not always repeated. Where two headings read alike, the source gives them in different places.
Key:
[1] = First-in-human SAD and MAD study, safety and tolerability; format: in vivo; settings: for Cmax: human, plasma, oral, read-out: individual Cmax levels up to which well tolerated
Protocol: A first-in-human study was conducted to evaluate the safety, tolerability and pharmacokinetics (PK) of single and multiple ascending doses (SAD and MAD) of oral Compound A.
In the SAD Phase, 32 healthy volunteers were randomized (3:1) to Compound A (5, 15, 20, 25 or 30 mg) or placebo. The study featured an adaptive design. A crossover food effect cohort (N=10) was also completed with single doses of 20 mg. A sub-set of 8 male subjects were also assessed with Transcranial Magnetic Stimulation (TMS) for effects on cortical excitability (see Examples 4 and 5).
Repeat doses of Compound A (15 mg QD) were evaluated in a fasted and fed state over 7 and 10 days, respectively. Repeat doses of Compound A (25 mg QD) were also evaluated in a fed state over 10 days.
Compound A was formulated as an immediate release capsule. Serial plasma PK samples were collected for all cohorts. Safety evaluations throughout the study included adverse event (AE) monitoring, clinical laboratory tests, vital signs, ECGs, physical examinations and Columbia-Suicide Severity Rating Scale.

[2] = tested on: corticospinal excitability; test: TMS crossover study, TMS-EMG active motor threshold (AMT); format: in vivo, human; settings: for Active Motor Threshold, post-dose change from baseline: individual subjects; for Active Motor Threshold, post-dose change from baseline / Active Motor Threshold, post-dose change from baseline (Mean): single 20 mg dose; for Active Motor Threshold, post-dose change from baseline (Mean): mean of subjects
Protocol: RMT and AMT values are reported as percentages of maximum stimulator output (% MSO). Drug-induced modulation of TMS-EMG parameters were evaluated over the 3 timepoints (2, 4, and 6 h) and for the timepoint with the highest drug exposure. AMT was recorded while subjects squeezed a manometer at 20% of each individual's maximum contraction force. […] AMT could not be registered for Subjects 912 and 940 at 2 hours after Compound A and placebo intake, respectively.

[3] = tested on: spontaneous brain oscillations; test: TMS crossover study, resting state EEG; format: in vivo, human
Text: Sensor-level delta (2-4 Hz), theta (4-7 Hz), alpha (8-12 Hz) and beta (13-30 Hz) frequency activity was estimated using a Fast Fourier Transform (FFT) approach. Power of all frequencies between 2 and 30 Hz were estimated, using a frequency resolution of 0.5 Hz. A non-parametric dependent samples t-test based on a permutation approach (1500 permutations) was used to test differences between drug conditions on all EEG sensors.

[4] = tested on: cortical excitability; test: Transcranial magnetic stimulation pilot study (RMT/AMT, TEPs, rEEG)
Protocol: (§1) In a pilot study TMS was used to non-invasively determine whether Compound A (10, 15 and 20 mg) impacts cortical excitability. The TMS pilot study was designed to inform sample size calculation for a larger randomized, double-blind and placebo-controlled TMS cross-over study (N=20) with Compound A.
(§2) Eight healthy, right-handed male subjects (aged 21-35 years, 62.4-95.4 kg) from a First-in-Human Phase 1 study were enrolled in this open-label TMS pilot study. RMT, TEPs and EEGs were recorded prior to Compound A, 2 and 4 h post dose. Spectral analysis was performed on resting EEGs. Single-subject level analyses were performed via multiple independent sample t-tests to determine effects of Compound A on TEP amplitudes. Multiple comparisons were accounted for using clusterbased permutation analysis.

[5] = as above; settings: male, human, in vivo
Protocol: as §1, §2

[6] = at highest Compound A plasma concentration vs pre-dose

Cc1cc(N2CCc3cc(F)ccc3C2)cc(C)c1NC(=O)CC(C)(C)C [Compound A, N-[4-(6-fluoro-3,4-dihydro-1H-isoquinolin-2-yl)-2,6-dimethylphenyl]-3,3-dimethylbutanamide]
Cmax ([1]; multiple doses): ≤ 107 ng/mL | Cmax ([1]; single doses): ≤ 104 ng/mL | SAEs, deaths, ECG or laboratory findings ([1]; single and multiple doses): no SAEs, deaths, or clinically significant ECG or laboratory findings | severity of the majority of AEs ([1]; single and multiple doses, e.g. dizziness, sedation): mild or moderate | safety and tolerability ([1]; single doses of up to 30 mg and multiple doses of 25 mg QD): safe and well-tolerated | AMT ([2]; 20 mg single dose): increased | change from baseline in AMT vs placebo ([2]; 20 mg, 6 h post-dose, p<0.01): significantly different from placebo | Active Motor Threshold, post-dose change from baseline ([2]; 2 h post-dose): 2 % MSO (3×) and 4 % MSO and 0 % MSO (9×) and 3 % MSO and 1 % MSO (5×) | Active Motor Threshold, post-dose change from baseline ([2]; 4 h post-dose): 2 % MSO (4×) and 4 % MSO and 0 % MSO (9×) and 3 % MSO (4×) and 1 % MSO (2×) | Active Motor Threshold, post-dose change from baseline ([2]; 6 h post-dose): 0 % MSO (4×) and 6 % MSO and 1 % MSO (3×) and 2 % MSO (2×) and 3 % MSO (5×) and 4 % MSO | Active Motor Threshold, post-dose change from baseline (Mean) ([2]; 2 h post-dose): 0.9 % MSO | Active Motor Threshold, post-dose change from baseline (Mean) ([2]; 4 h post-dose): 1.3 % MSO | Active Motor Threshold, post-dose change from baseline (Mean) ([2]; 6 h post-dose): 2.0 % MSO | shift of power spectra of resting state EEGs ([3]; 20 mg): toward lower frequencies | Modulation of resting state EEG bands, Delta ([3]; 2 h after dosing vs pre-dose): ↑ Delta | Modulation of resting state EEG bands, Theta ([3]; 2 h after dosing vs pre-dose): ↑ Theta | Modulation of resting state EEG bands, Beta ([3]; 4 h after dosing vs pre-dose): ↑ Beta | Modulation of resting state EEG bands, Delta ([3]; 4 h after dosing vs pre-dose): ↑ Delta | Modulation of resting state EEG bands, Theta ([3]; 4 h after dosing vs pre-dose): ↑ Theta | resting state delta power vs pre-dose ([3]; all available subjects, 2 h p<0.001, 4 h p<0.001): significantly increased | resting state beta band power vs pre-dose ([3]; all available subjects, 2 h p=0.005, 4 h p<0.001, 6 h p=0.009): significantly increased | resting state theta power vs pre-dose ([3]; all available subjects, 2 h p=0.006, 4 h two clusters p=0.008 and p=0.03): significantly increased | Modulation of resting state EEG bands, Beta [3, 6]: ↑ Beta | Modulation of resting state EEG bands, Delta [3, 6]: ↑ Delta | Modulation of resting state EEG bands, Theta [3, 6]: ↑ Theta | resting state delta power vs pre-dose ([3]; concentration analysis N=16, high plasma exposure, p<0.001): increase in power | resting state beta power vs pre-dose ([3]; concentration analysis N=16, high plasma exposure, p=0.005): increase in power | resting state theta power vs pre-dose ([3]; concentration analysis N=16, high plasma exposure, p=0.01): increase in power | resting state delta power compared to placebo ([3]; post-dose minus pre-dose, p<0.001): overall increase of power | resting state beta power compared to placebo ([3]; post-dose minus pre-dose, p=0.003): overall increase of power | resting state theta power compared to placebo ([3]; post-dose minus pre-dose, p=0.02): overall increase of power | resting state delta power vs pre-dose ([3]; subjects with drug exposure, 2 h p=0.001, 4 h p<0.001): significantly increased | resting state beta band power vs pre-dose ([3]; subjects with drug exposure, 2 h p=0.01, 4 h p<0.001): significantly increased | resting state theta power vs pre-dose ([3]; subjects with drug exposure, 2 h p=0.01, 4 h p=0.01): significantly increased | TEP modulation ([4]; 10 mg (N=2) and 15 mg (N=3)): did not show significant and robust TEP modulation | AMT ([4]; 10 mg, N=2): did not change AMT | SICI assessed with TMS/EMG ([4]; 10, 15, 20 mg): but not SICI | motor thresholds assessed with TMS/EMG ([4]; 10, 15, 20 mg, 2 and 4 hours post-drug): increased | RMT increase from baseline ([4]; 4 h post 20 mg): 4.3±0.6% | theta power in rEEG ([4]; 4 h post 20 mg): increased | suppression of TEP amplitude, peak at 180 ms (P180) ([4]; 4 h post 20 mg, p<0.01, N=3): 1.92±0.03 μV | concentration at 4 h ([5]; 10 mg): 23.1 ng/mL | concentration at 4 h ([5]; 15 mg): 36.3 ng/mL | concentration at 4 h ([5]; 20 mg): 50 ± 10 ng/mL

From US11135214B2, “Methods for enhancing the bio availability and exposure of a voltage-gated potassium channel opener” (priority 2018, dated 2021)
